For one compound, Kd results are on record in PMC5248971 (Science signaling, 2016).

The target in the test is T1, OpuCA (Staphylococcus aureus, UniProt A0A0H2XHM3).
T1 sequence (A0A0H2XHM3 1-408): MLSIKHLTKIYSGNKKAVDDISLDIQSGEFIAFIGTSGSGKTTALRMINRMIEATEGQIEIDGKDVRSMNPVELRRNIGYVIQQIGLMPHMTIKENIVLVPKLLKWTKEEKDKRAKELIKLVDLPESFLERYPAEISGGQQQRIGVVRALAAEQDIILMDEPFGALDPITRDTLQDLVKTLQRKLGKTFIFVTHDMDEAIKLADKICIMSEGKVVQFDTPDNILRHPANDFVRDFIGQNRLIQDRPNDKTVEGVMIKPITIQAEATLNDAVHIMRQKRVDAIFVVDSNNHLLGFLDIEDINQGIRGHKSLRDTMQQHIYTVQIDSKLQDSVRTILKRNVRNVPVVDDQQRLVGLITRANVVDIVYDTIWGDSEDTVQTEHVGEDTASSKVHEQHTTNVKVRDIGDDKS
The format is binding.

Consider `Nc1ncnc2c1ncn2[C@@H]1O[C@@H]2COP(=O)(O)O[C@H]3[C@@H](O)[C@H](n4cnc5c(N)ncnc54)O[C@@H]3COP(=O)(O)O[C@H]2[C@H]1O` [c-di-AMP], for which the affinity, expressed as Kd, was 2460 ± 140 nM.

The Kd is a measure of binding affinity in units of concentration. Lower therefore signals tighter binding.
